Assay results reported in the OligoGym collection.
HELM strings list units from the 5' end as sugar, base in round brackets, then linkage (d deoxyribose, r ribose, m 2'-O-methyl, p phosphodiester). Strings are as the collection lists them; they lack the last nucleoside at the 3' end of the tested compound. [moe] = 2'-O-(2-methoxyethyl) (MOE); [sp] = phosphorothioate linkage; [m5C] = 5-methylcytosine

The substances below were run against GFAP (assay: mouse, dose not given). Details: ASO.

Point of comparison: “RNA1{[moe](G)[sp].[moe]([m5C])p.[moe](G)p.[moe](A)p.[moe](G)[sp].d([m5C])[sp].d(G)[sp].d(G)[sp].d(A)[sp].d(G)[sp].d(G)[sp].d([m5C])[sp].d([m5C])[sp].d(T)[sp].d(G)[sp].[moe](G)p.[moe](G)p.[moe](T)[sp].[moe](G)}$$$$ (last 3' nucleoside missing)”, 3 h FOB score 6 score 0-7. Against it:
- RNA1{[moe](A)[sp].[moe](T)p.[moe](T)p.[moe](T)p.d(G)[sp].d(T)[sp].d([m5C])[sp].d(T)[sp].d(T)[sp].d(T)[sp].d(A)[sp].d(T)[sp].d(T)[sp].d(T)[sp].[moe](T)p.[moe](T)p.[moe]([m5C])p.[moe]([m5C])[sp].[moe](T)}$$$$ (last 3' nucleoside missing) — lower, 0 score 0-7
- RNA1{[moe](A)[sp].[moe](G)p.[moe](A)p.[moe](G)p.[moe](A)[sp].d(T)[sp].d(G)[sp].d(G)[sp].d(G)[sp].d(T)[sp].d(G)[sp].d(A)[sp].d(G)[sp].d(G)[sp].d(T)[sp].[moe](G)p.[moe](A)p.[moe](G)[sp].[moe](G)}$$$$ (last 3' nucleoside missing) — higher, 7 score 0-7
- RNA1{[moe](G)[sp].[moe](T)p.[moe](G)p.[moe](T)p.[moe](A)[sp].d(T)[sp].d(T)[sp].d(A)[sp].d(G)[sp].d(G)[sp].d(A)[sp].d(T)[sp].d([m5C])[sp].[moe]([m5C])p.[moe]([m5C])p.[moe](A)[sp].[moe](T)}$$$$ (last 3' nucleoside missing) — lower, 4 score 0-7
- RNA1{[moe]([m5C])[sp].[moe]([m5C])p.[moe](A)p.[moe](G)p.[moe](T)p.d(G)[sp].d(T)[sp].d([m5C])[sp].d(T)[sp].d(T)[sp].d([m5C])[sp].d(A)[sp].d([m5C])[sp].d(T)[sp].d(T)[sp].[moe](T)p.[moe](G)p.[moe]([m5C])[sp].[moe](T)}$$$$ (last 3' nucleoside missing) — lower, 0 score 0-7
- RNA1{[moe](G)[sp].[moe](T)p.[moe](G)p.[moe]([m5C])p.[moe]([m5C])[sp].d([m5C])[sp].d([m5C])[sp].d([m5C])[sp].d([m5C])[sp].d(G)[sp].d([m5C])[sp].d([m5C])[sp].d([m5C])[sp].d(T)[sp].d([m5C])[sp].[moe]([m5C])p.[moe](T)p.[moe]([m5C])[sp].[moe]([m5C])}$$$$ (last 3' nucleoside missing) — lower, 2 score 0-7
- RNA1{[moe](T)[sp].[moe]([m5C])p.[moe](A)p.[moe](G)p.[moe](T)p.d(T)[sp].d(T)[sp].d(T)[sp].d([m5C])[sp].d([m5C])[sp].d(T)[sp].d([m5C])[sp].d([m5C])[sp].d(A)[sp].d(G)[sp].[moe]([m5C])p.[moe](A)p.[moe](G)[sp].[moe]([m5C])}$$$$ (last 3' nucleoside missing) — lower, 2 score 0-7
- RNA1{[moe](T)[sp].[moe](G)p.[moe](T)p.[moe](G)p.[moe](A)[sp].d(T)[sp].d(T)[sp].d(T)[sp].d(T)[sp].d([m5C])[sp].d([m5C])[sp].d([m5C])[sp].d([m5C])[sp].d(G)[sp].d(T)[sp].[moe]([m5C])p.[moe](T)p.[moe](T)[sp].[moe](T)}$$$$ (last 3' nucleoside missing) — lower, 5 score 0-7
- RNA1{[moe]([m5C])[sp].[moe](T)p.[moe](G)p.[moe]([m5C])p.[moe]([m5C])p.[moe](A)p.d(T)[sp].d(T)[sp].d(T)[sp].d(A)[sp].d(T)[sp].d([m5C])[sp].d(T)[sp].d(G)[sp].d(T)[sp].d(G)[sp].[moe]([m5C])p.[moe](T)[sp].[moe](T)}$$$$ (last 3' nucleoside missing) — lower, 1 score 0-7
- RNA1{[moe]([m5C])[sp].[moe](T)p.[moe](T)p.[moe](T)p.[moe]([m5C])[sp].d(T)[sp].d([m5C])[sp].d(T)[sp].d([m5C])[sp].d([m5C])[sp].d(T)[sp].d(G)[sp].d(T)[sp].d(T)[sp].d(T)[sp].[moe]([m5C])p.[moe](A)p.[moe](G)[sp].[moe]([m5C])}$$$$ (last 3' nucleoside missing) — lower, 3 score 0-7
- RNA1{[moe](T)[sp].[moe](T)p.[moe](G)p.[moe](G)p.[moe]([m5C])p.[moe](A)p.d(G)[sp].d(T)[sp].d(A)[sp].d(T)[sp].d(T)[sp].d(A)[sp].d([m5C])[sp].d([m5C])[sp].d(T)[sp].d([m5C])[sp].[moe](T)p.[moe](A)[sp].[moe]([m5C])}$$$$ (last 3' nucleoside missing) — lower, 0 score 0-7
- RNA1{[moe](A)[sp].[moe](A)p.[moe](G)p.[moe](G)p.[moe]([m5C])p.[moe](A)p.d([m5C])[sp].d(A)[sp].d(G)[sp].d(T)[sp].d(T)[sp].d([m5C])[sp].d([m5C])[sp].d([m5C])[sp].d(A)[sp].d(G)[sp].[moe](A)p.[moe](T)[sp].[moe](A)}$$$$ (last 3' nucleoside missing) — lower, 2 score 0-7
- RNA1{[moe]([m5C])[sp].[moe](A)p.[moe](G)p.[moe]([m5C])p.[moe](A)[sp].d(G)[sp].d(T)[sp].d(G)[sp].d([m5C])[sp].d([m5C])[sp].d([m5C])[sp].d(T)[sp].d(G)[sp].d(A)[sp].d(A)[sp].[moe](G)p.[moe](A)p.[moe](T)[sp].[moe](T)}$$$$ (last 3' nucleoside missing) — lower, 1 score 0-7
- RNA1{[moe](T)[sp].[moe](G)p.[moe](T)p.[moe]([m5C])p.[moe](T)p.[moe](T)p.d(T)[sp].d(A)[sp].d(T)[sp].d(T)[sp].d(T)[sp].d(T)[sp].d(T)[sp].d([m5C])[sp].d([m5C])[sp].d(T)[sp].[moe]([m5C])p.[moe](A)[sp].[moe](G)}$$$$ (last 3' nucleoside missing) — lower, 1 score 0-7
- RNA1{[moe](T)[sp].[moe](T)p.[moe](G)p.[moe](G)p.[moe](T)p.[moe](G)p.d([m5C])[sp].d(T)[sp].d(T)[sp].d(T)[sp].d(T)[sp].d(G)[sp].d([m5C])[sp].d([m5C])[sp].d([m5C])[sp].d([m5C])[sp].[moe]([m5C])p.[moe](T)[sp].[moe](G)}$$$$ (last 3' nucleoside missing) — lower, 1 score 0-7
- RNA1{[moe](A)[sp].[moe](G)p.[moe](T)p.[moe]([m5C])p.[moe](T)[sp].d([m5C])[sp].d(A)[sp].d(G)[sp].d(T)[sp].d(T)[sp].d(T)[sp].d(T)[sp].d([m5C])[sp].d([m5C])[sp].d(T)[sp].[moe]([m5C])p.[moe]([m5C])p.[moe](A)[sp].[moe](G)}$$$$ (last 3' nucleoside missing) — lower, 2 score 0-7
- RNA1{[moe](A)[sp].[moe](T)p.[moe](T)p.[moe](T)p.[moe](G)p.[moe](G)p.d([m5C])[sp].d(A)[sp].d(G)[sp].d(T)[sp].d(A)[sp].d(T)[sp].d(T)[sp].d(A)[sp].d([m5C])[sp].d([m5C])[sp].[moe](T)p.[moe]([m5C])[sp].[moe](T)}$$$$ (last 3' nucleoside missing) — lower, 0 score 0-7
- RNA1{[moe](A)[sp].[moe](G)p.[moe](T)p.[moe]([m5C])p.[moe](A)[sp].d(G)[sp].d([m5C])[sp].d([m5C])[sp].d(T)[sp].d(G)[sp].d(G)[sp].d(T)[sp].d(T)[sp].d(A)[sp].d(G)[sp].[moe]([m5C])p.[moe]([m5C])p.[moe](T)[sp].[moe](T)}$$$$ (last 3' nucleoside missing) — the same, 6 score 0-7
